Data taken from article PMC5556019, “Targeting Apolipoprotein E/Amyloid β Binding by Peptoid CPO_Aβ17-21 P Ameliorates Alzheimer’s Disease Related Pathology and Cognitive Decline” (Scientific Reports, 2017).
Numbered stars: 1 amine (or outer) side, 2 acyl side, 3 side chain; on linkers, the order of the positions; unused ones are H or OH. Bridge positions count the residues as written; N and C are the ends. Square brackets hold non-standard residues; d marks the D form. Peptide text beside a SMILES is read from it. ξ: configuration not given here. N(CH2CH2CO)Gly = O=C(CN(CCC(=O)[*:3])[*:1])[*:2]; Nphe = O=C(O)CNCc1ccccc1; Nleu = CC(C)CNCC(=O)O; ξP = O=C(O)C1CCCN1; Sar = CNCC(=O)O

What was measured:
apoE4/Aβ42 binding = molecular target: T1, apoE4/Aβ42 binding (Homo sapiens, UniProt P02649, C130R); experiment: Surface plasmon resonance assay of apoE4/Aβ42 binding inhibition
T1 construct: purchased BioVision (Milpitas, CA)
T1 sequence (P02649 19-317 C130R): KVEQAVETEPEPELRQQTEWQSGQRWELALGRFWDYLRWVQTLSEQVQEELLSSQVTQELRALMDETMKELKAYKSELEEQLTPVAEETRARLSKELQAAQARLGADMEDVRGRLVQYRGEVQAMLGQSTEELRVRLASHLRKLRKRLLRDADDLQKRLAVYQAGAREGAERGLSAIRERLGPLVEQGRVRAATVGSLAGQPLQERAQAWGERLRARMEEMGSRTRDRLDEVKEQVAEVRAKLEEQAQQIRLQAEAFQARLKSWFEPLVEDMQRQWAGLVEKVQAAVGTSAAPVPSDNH
Protocol: Experiments were performed using a Reichert SR7000DC refractometer system (Reichert, New York) equipped with a CM5 sensor chip. Acetate buffer was used for immobilization of the peptide Aβ42 (ligand). […] Importantly, Aβ42 species are considered critical for seeding of amyloid deposits, [32]. CM-dextran on a CM5 gold sensor chip was activated by injecting a solution of 10 mg/mL N-Hydroxysuccinimide (NHS) and 40 mg/mL 1-Ethyl-3-(3-dimethylaminopropyl) carbodiimide (EDC) over the sensor chip surface for 7 min at a flow rate of 20 µL/min. Then the ligand, 50 µg/mL HFIP treated synthetic peptide Aβ42 in 10 mM sodium acetate, pH 4.5, was immobilized by injection over the surface for 20 min. The unreacted sites on the sensor chip surface were blocked by injection of 1 M ethanolamine, pH 8.5 for 10 min. […] After each binding cycle the surface was regenerated by a short, fast injection of 10 mM hydrochloric acid. To verify results analytes containing lipidated human apoE4 molecules or lipidated human apoE3 molecules incubated with peptoid inhibitors in phosphate buffered saline with 0.05% TWEEN 20, pH 7.4 (PBST) were tested and the association and dissociation reactions were monitored.

[1] = system: apoE4 mediated Aβ40 aggregation; experiment: Thioflavin T assay of apoE4 mediated Aβ40 aggregation; format: biochemical, human
Protocol: Peptide Aβ42 or peptoid CPO_Aβ17-21 P were incubated alone at a concentration of 100 µM over a period of 7–10 days at 37 °C in 100 mM Tris buffer (pH 7.4). […] In aggregation inhibition experiments, apoE4 was pre-incubated with CPO_Aβ17-21 P in a molar ratio of 1:2 for 6 hrs at 37 °C followed by addition to freshly reconstituted Aβ42 on ice (molar ratio 100:1:2, Aβ42:apoE4:peptoid). As a control, Aβ42 was also incubated with CPO_Aβ17-21 P at a molar ratio of 100:2. For peptide Aβ40 all the experiments were conducted under the same conditions as Aβ42 except the peptide concentration was 400 µM. The molar ratio of Aβ40:apoE4:CPO_Aβ17-21 P was 100:1:2. (400 µM Aβ40:4 µM apoE4:8 µM CPO_Aβ17-21 P). Fibril formation by the different peptides at various time points was evaluated by a standard Thioflavin-T assay according to previously published protocols, [33].The samples were diluted in buffer containing 50 mM glycine, 2 µM Thioflavin T pH 9.2, and read on a Molecular Devices SpectraMax M2 spectrophotometer (Sunnyvale, CA) at excitation and emission wavelengths 440 and 482 nm.

APP/PS1 Tg mice = experiment: Brain Aβ and oligomeric Aβ levels by ELISA and western blot; format: in vivo, mouse
Protocol: The effect of CPO_Aβ17-21 P on Aβ deposition was tested in APP/PS1 Tg mice with plaque pathology. This AD mouse model develops plaque pathology from the age of 3 months. Animals were divided into two groups and received intraperitoneally (i.p.) injections of 0.2 mg of CPO_ Aβ17–21 P per mouse in sterile saline (n = 11, 5 male, 6 female) or saline alone (n = 10, 5 male, 5 female) as a control twice weekly for 4 months, beginning at age 3 months. During the treatment, veterinary staff monitored animals for any signs of toxicity, such as changes in body weight, physical appearance, and altered behavior. Animals were sacrificed a week after administration of the last treatment dose and behavioral testing. All mouse care and experimental procedures were compliant with guidelines of animal experimentation and were approved by the Institutional Animal Care and Use Committee at the New York University School of Medicine.
Brains were weighed and homogenized (10% w/v) in tissue homogenization buffer (20 mM Tris base, pH 7.4, 250 mM sucrose, 1 mM EDTA, 1 mM EGTA) with […] phenylmethylsulphonyl fluoride, complete protease inhibitor cocktail and PhosSTOP phosphatase inhibitor cocktail (Roche, Indianapolis, IN, USA) added immediately before homogenization. The extraction of soluble Aβ and total Aβ was according to the method we have published previously, [44]. Brain homogenates were mixed with an equal volume of cold 0.4% diethylamine (DEA)/100 mM NaCl, and subsequently centrifuged at 100,000 × g for 1 hr at 4 °C. The supernatant was neutralized with 1/10 volume of 0.5 M Tris, pH 6.8, flash-frozen on dry ice and stored at −80 °C until used for ELISA analysis as soluble Aβ fraction. […] Soluble and total Aβ levels in the brain were measured by sandwich ELISA which used 6E10 monoclonal antibody as a capture antibody and two detection polyclonal antibodies R162 and R165 specific for Aβ40 and Aβ42, respectively. […]
Oligomeric Aβ (o-Aβ) levels were determined with the Biosensis Oligomeric Amyloid-Beta ELISA kit (Biosensis, Thebarton, South Australia) following the manufacturer’s instructions. In brief, the unknown concentrations of o-Aβ in samples were measured against a standard containing different concentrations of o-Aβ. […] The TMB reaction was stopped and the absorbance of each well was read at 450 nm. The standards provided a linear curve and the best-fit line determined by linear regression were used to calculate the concentration of Aβ oligomers in the samples
Brain homogenates were centrifuged at 100,000 × g for 1 hr at 4 °C. The supernatants were collected and the total protein concentrations were determined by the bicinchoninic acid assay (BCA; Pierce, Rockford, IL). […]

## CC(C)CN1CC(=O)N2CCCC2C(=O)N(Cc2ccccc2)CC(=O)N(Cc2ccccc2)CC(=O)N(C)CC(=O)N(CC(N)=O)CCC1=O (stereo not shown) [CPO_Aβ17-21 P] ([Nleu][ξP][Nphe][Nphe][Sar][N(CH2CH2CO)Gly]-NH2; lactam N-6)
apoE4/Aβ42 binding; SPR, 2:1 molar ratio (peptoid:apoE4)
  inhibition of apoE4/Aβ42 binding: 50%
apoE4/Aβ42 binding; SPR, 8:1 molar ratio (peptoid:apoE4)
  inhibition of apoE4/Aβ42 binding: near complete inhibition
apoE4/Aβ42 binding; SPR, immobilised Aβ42, recombinant human apoE4 pre-incubated with peptoid, PBST pH 7.4
  inhibition of apoE4/Aβ42 binding (library screen): inhibited apoE4/Aβ42 binding
apoE4/Aβ42 binding; one-site competition nonlinear regression, Fig. 1d legend: lipidated apoE/Aβ binding, read-out: half-maximal inhibition (IC50) of apoE/Aβ binding
  IC50: 1.02 nM
[1]; 400 µM Aβ40:4 µM apoE4:8 µM peptoid, apoE4 pre-incubated with peptoid 6 hrs 37 °C, p = 0.0034
  inhibition of apoE4 mediated Aβ40 aggregation: significant inhibition
[1]; Aβ40 + peptoid without apoE4, molar ratio 100:2
  Aβ40 fibril formation with peptoid versus Aβ40 alone: no significant difference
APP/PS1 Tg mice; ELISA, p < 0.0001 versus vehicle
  Aβ42 in the insoluble (formic acid) brain fraction: Reduction
APP/PS1 Tg mice; ELISA, p < 0.001 versus vehicle
  Aβ40 in the insoluble (formic acid) brain fraction: Reduction
APP/PS1 Tg mice; anti-amyloid antibody 4G8, brain homogenates, p < 0.05 versus vehicle
  Aβ oligomeric species by western blot: Reduction
APP/PS1 Tg mice; brain homogenates, p < 0.05 versus vehicle
  Aβ oligomeric species by ELISA: Reduction
